The target in assay [1] is T1, P2X7 (Homo sapiens, UniProt Q99572).
T1 construct: endogenous in cells
T1 sequence (Q99572 1-595): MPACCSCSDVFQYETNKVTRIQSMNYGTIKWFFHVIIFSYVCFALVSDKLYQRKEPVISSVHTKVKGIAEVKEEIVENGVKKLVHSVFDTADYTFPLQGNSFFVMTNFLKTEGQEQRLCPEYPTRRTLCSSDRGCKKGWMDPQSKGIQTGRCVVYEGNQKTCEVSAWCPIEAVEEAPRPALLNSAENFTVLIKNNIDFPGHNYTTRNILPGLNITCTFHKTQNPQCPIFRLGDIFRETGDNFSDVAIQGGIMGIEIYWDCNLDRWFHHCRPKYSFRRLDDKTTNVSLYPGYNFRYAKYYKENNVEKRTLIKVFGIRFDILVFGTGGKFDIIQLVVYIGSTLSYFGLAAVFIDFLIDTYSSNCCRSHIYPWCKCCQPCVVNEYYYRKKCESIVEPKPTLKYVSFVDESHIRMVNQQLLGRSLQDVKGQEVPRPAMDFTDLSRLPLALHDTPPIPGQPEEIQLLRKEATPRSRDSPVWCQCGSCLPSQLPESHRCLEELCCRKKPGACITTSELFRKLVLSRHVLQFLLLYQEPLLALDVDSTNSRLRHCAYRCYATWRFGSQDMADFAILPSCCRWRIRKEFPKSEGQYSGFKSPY
The assay is described as follows: Western blotting of macrophage signaling, P2X7. Type of assay: cell-based. The following applies: low concentration. The text has this: (§1) It was identified that the Fe-ATP self-assembly was disassembled into the ATP and the iron ion such that the ATP was released therefrom, and this enabled AIP-mediated anti-inflammatory polarization of macrophages.

For assay [2], the system named is macrophages. The assay is described as follows: Macrophage polarization (immunofluorescence Arg-1/iNOS, flow cytometry). In kind it is cell-based. The note with it: immunofluorescence staining. From the text:
FIG. 15 to FIG. 17 show experiments according to each of the treatment conditions in cells before experimenting in rats according to Experimental Example 2 below. As shown in a following table 6, the conditions were divided into the control group: PBS only based treatment, Fe-ATP based treatment, ATP only based treatment, FeCl2 based treatment, and Fe3O4 based treatment. FIG. 15 is the result of identifying disassembling of the Fe-ATP self-assembly. Referring to FIG. 15, under each treatment condition, an experiment result was identified via immunofluorescence staining of […] (M2 polarization marker), iNOS (M1 polarization marker), and Dapi. […] This was identified through flow cytometry.

The target of assay [3] is T2, P2Y1 (Homo sapiens, UniProt P47900).
T2 construct: endogenous in cells
As to the kind of experiment: Western blotting of macrophage signaling, P2Y1. In kind it is cell-based. The note with it: low concentration.
Excerpt: as §1
For orientation: A western blot detects proteins with antibodies after separation by electrophoresis.

Assay [4] concerns stem cells. As to the kind of experiment: Osteogenic differentiation of stem cells (RUNX2, osteocalcin immunofluorescence, ALP staining). In kind it is cell-based. From the text: FIG. 27 and FIG. 28 show experiments according to each of treatment conditions in cells before experimenting in rabbits according to Experimental Example 3 below. As shown in a following table 7, the treatment conditions include treatment with only PBS as a control group, treatment with Fe-AMP, treatment with AMP only, treatment with a combination of adenosine and PO4 (Adenosine+PO4), treatment with Adenosine, treatment with PO4, treatment with FeCl2, and treatment with an osteogenic induction medium. In this regard, FeCl2 was disassembled into Fe^2+ and Cl—. Thus, the treatment with FeCl2 was added to compare the released Fe^2+ therefrom with the Fe^2+ released from the […]. […] The adenosine obtained via decomposition of the AMP released from the Fe-AMP self-assembly was similar to osteogenic differentiation medium, and was analyzed via actin and dapi-positive nuclei and ALP chemical staining along with immunofluorescence staining of RUNX2 and osteocalcin. […] In other words, the Fe-AMP self-assembly induces osteogenic differentiation of stem cells through adenosine signaling. This was identified via immunofluorescence staining of RUNX2 and osteocalcin along with actin, dapi-positive nuclei, and ALP chemical staining.

Assay [5] concerns ROS. As to the kind of experiment: IVIS L-012 ROS signal analysis in vivo. The following applies: 2 hours after the injection. Also noted: species or system mouse. The method, then:
Luminescent probes L-012 (Wako Chemical, Korea) were dissolved in […] a thus prepared solution was maintained in a fresh state just before the experiment. In a 50 […] injection volume, 25 mg/kg thereof was administered subcutaneously to a back of a mouse. Chemiluminescence (CL) release assessment was started immediately after the injection of L-012 using indiGOTM software and IVIS (In vivo Imaging System, NightOWL II LB 983, BERTHOLD Technologies GmbH, Germany). To collect sufficient CL release data, the mouse was exposed thereto for 20 seconds each time. CL released from the mouse skin was recorded and visualized in real time, and then the CL released in an area of interest was quantified as total flux (photons/second).

Assay [6] relates to hMSCs. The assay is described as follows: Western blotting of osteogenic differentiation via adenosine-A2B receptor signaling. In kind it is cell-based.

Structures are written as SMILES. Structures can show the parent of a compound that is named as a salt.

T2 sequence (P47900 whole entry, species assumed): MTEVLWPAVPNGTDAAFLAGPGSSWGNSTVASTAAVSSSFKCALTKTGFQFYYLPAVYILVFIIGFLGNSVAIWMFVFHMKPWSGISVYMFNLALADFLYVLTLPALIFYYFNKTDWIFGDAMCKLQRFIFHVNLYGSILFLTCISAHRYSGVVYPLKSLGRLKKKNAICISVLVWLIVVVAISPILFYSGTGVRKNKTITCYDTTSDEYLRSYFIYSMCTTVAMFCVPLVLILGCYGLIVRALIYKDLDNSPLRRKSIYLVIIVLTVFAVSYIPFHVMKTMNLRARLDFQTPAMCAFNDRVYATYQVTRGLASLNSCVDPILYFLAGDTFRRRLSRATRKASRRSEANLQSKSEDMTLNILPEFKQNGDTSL

On to `Nc1ncnc2c1ncn2[C@@H]1O[C@H](COP(=O)([O-])OP(=O)([O-])OP(=O)(O)O)[C@@H](O)[C@H]1O.[Na+].[Na+]` [ATP, Adenosine 5′-triphosphate disodium salt], for which the P2X7 signaling result in assay [1] is recorded as “inhibited P2X7 signaling”. The “Arg-1 (M2 polarization marker) expression” value in assay [2] is given as “strongly expressed”. Besides, the P2Y1 signaling entry in assay [3] is given as “stimulated P2Y1 signaling”.

`Nc1ncnc2c1ncn2[C@@H]1O[C@H](CO)[C@@H](O)[C@H]1O` [Adenosine]: the “Osteogenic differentiation of stem cells” value in assay [4] was “induced the osteogenic differentiation to a similar level thereto”.

Take `COc1cccc2c1C(=O)c1c(O)c3c(c(O)c1C2=O)C[C@@](O)(C(=O)CO)C[C@@H]3O[C@H]1C[C@H](N)[C@H](O)[C@H](C)O1` [Doxorubicin (DOX), Doxorubicin hydrochloride]: the “ROS production in vivo (L-012 signal)” value in assay [5] is given as “has little effect on the ROS release in a short period of time”.

Take `[Cl][Fe][Cl]` [FeCl2, Iron(II) chloride]: the “Arg-1 (M2 polarization marker) expression” value in assay [2] is on record as “not expressed”.

`CCCn1c(=O)[nH]c2nc(-c3ccc(S(=O)(=O)N4CCN(c5ccc(Cl)cc5)CC4)cc3)[nH]c2c1=O` [PSB 603]: the “Osteogenic differentiation of hMSCs” value in assay [6] was “osteogenic differentiation of hMSCs was inhibited”.
